Reference: US20060111388A1, “Phenanthroline and derivatives thereof used to lower intraocular pressure in an affected eye” (University of North Texas Health Science Center at Fort …, priority 2004, published 2006)

Tests used:
[1] = tested on: Morrison rat model eye with elevated intraocular pressure; assay: Morrison rat model for glaucoma, IOP by tonometer after topical application; format: in vivo
Text: The Intraocular Pressure (“IOP”) in a rat eye was lowered following treatment of the eye with about a 1% (w/v) phenanthroline solution. Briefly, the IOP was elevated in one eye for rats grouped as specified below by using the method as described by Morrison et al (1997). […] The other eyes was used as a control. Rats were housed post-surgically in constant low light (<90 lux) to minimize effects of circadian influences on IOP. Five rats were used per treatment group.
A solution of 1,7-phenanthroline was prepared by dissolving 10 mg of 1,7-phenanthroline in 32 μl methanol (100%) forming a concentrated 1,7-phenanthroline solution. About 3 μl of the concentrated 1,7-phenanthroline solution was then added to 96 μl of saline (0.9% NaCl) to form a working 1,7-phenanthroline solution. The working 1,7-phenanthroline solution was then used in the eye of the Morrison Model of Glaucoma. The average intraocular pressure (IOP) in Morrison model eye was 26.22 (average of nine readings) prior to application of the working 1,7-phenanthroline solution. In contrast, the IOP measured 6 hr after application of the working 1,7-phenanthroline solution dropped to 25.66, as shown in FIG. 6A.
(§1) A solution of 4,7-dihydroxy-1,10-phenanthroline was prepared by dissolving 7 mg of 4,7-dihydroxy-1,10-phenanthroline in 22 μl methanol, 30 μl 1 N NaOH, and 626 μl of saline (0.9% NaCl) forming a 4,7-dihydroxy-1,10-phenanthroline solution having a pH of about 10.42. […] The 4,7-dihydroxy-1,10-phenanthroline solution was centrifuged at 10,000×g for about 5 min to remove the precipitate. The clear supernatant was removed and used for testing the Morrison model eye. The average intraocular pressure (IOP) in the eye with elevated pressure was 27.77 (average of nine readings) prior to application of the drug.
(§2) A solution of 1,10-phenanthroline 5,6-dione was prepared by dissolving 7 mg of 1,10-phenanthroline 5,6-dione in 44 μl methanol, and 88 μl dimethylsulfoxide (DMSO). […] The 1,10-phenanthroline 5,6-dione solution with precipitate was centrifuged at 10,000×g for 5 min, and the clear supernatant was removed. 6 μl of the supernatant plus 97 μl of saline formed the working solution used in the Morison model of glaucoma. The average intraocular pressure (IOP) in eye with elevated pressure was 27.66 (average of nine readings) prior to application of the drug.

[2] = Solubility observed while preparing the test solution; format: physicochemical
Procedure: as §1, §2

patients = patients treated with latanoprost; cited from earlier work
thermolysin = molecular target: T1, thermolysin (Bacillus thermoproteolyticus, UniProt P00800); details: reversible inhibitor; cited from earlier work
T1 sequence (P00800 233-548): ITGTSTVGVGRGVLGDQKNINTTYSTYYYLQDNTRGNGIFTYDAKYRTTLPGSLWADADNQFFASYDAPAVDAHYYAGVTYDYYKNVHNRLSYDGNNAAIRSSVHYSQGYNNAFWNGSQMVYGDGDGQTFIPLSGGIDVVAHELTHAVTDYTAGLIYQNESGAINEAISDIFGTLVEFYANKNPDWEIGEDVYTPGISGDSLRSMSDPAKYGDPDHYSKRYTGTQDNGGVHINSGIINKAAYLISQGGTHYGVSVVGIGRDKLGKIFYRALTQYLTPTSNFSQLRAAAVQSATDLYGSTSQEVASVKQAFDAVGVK

## c1cnc2c(c1)ccc1ncccc12 [1,7-phenanthroline]
[1]; working solution: 10 mg in 32 μl methanol, 3 μl added to 96 μl saline, average IOP 26.22 (nine readings) prior to application
  IOP measured 6 hr after application (FIG. 6A): 25.66

## O=C1C(=O)c2cccnc2-c2ncccc21 [1,10-phenanthroline 5,6-dione]
[1]; 6 μl supernatant (7 mg in 44 μl methanol, 88 μl DMSO) plus 97 μl saline, average IOP 27.66 (nine readings) prior to application
  IOP measured 6 hr after application (FIG. 6C): 25.44
[2]; 7 mg in 44 μl methanol and 88 μl dimethylsulfoxide
  solubility in methanol and DMSO: the entire drug was not solubilized

## Oc1ccnc2c1ccc1c(O)ccnc12 [4,7-dihydroxy-1,10-phenanthroline]
[1]; clear supernatant of 7 mg in 22 μl methanol, 30 μl 1 N NaOH, 626 μl saline, adjusted to pH 7.7, average IOP 27.77 (nine readings) prior to application
  IOP measured 6 hr after application (FIG. 6B): 26.22
[2]; 7 mg in 22 μl methanol, 30 μl 1 N NaOH, 626 μl saline, 1N HCl
  solubility on adjusting solution from pH about 10.42 to pH 7.7: some precipitation of the drug

## CC(C)OC(=O)CCC/C=C\C[C@@H]1[C@@H](CC[C@@H](O)CCc2ccccc2)[C@H](O)C[C@@H]1O [latanoprost, Latanoprost]
patients
  increased iris pigmentation, share of patients: up to one in six

## c1cnc2c(c1)ccc1cccnc12 [phenanthroline, 1,10-phenanthroline]
[1]; 1% (w/v) in saline, 20-25 μl topically once, 22 and 27 days following surgery, cohort 2-4-04, IOP measured after 1 hour and 6 hours
  intraocular pressure (FIG. 4): decreased
[1]; 1% phenanthroline, 27 days following surgery, ID#1-17-48 in cohort 2-4-04
  intraocular pressure (FIG. 5): decreased
thermolysin
  Ki: 40 µM
